Values after ≈ are worked out from the molar mass of the structure shown.
Details: buffer; pH 7.4; 200.0 µM

SMILES | solubility kinetic
Cc1c(C)n(O)c2ccc3nonc3c12 | > 30.5 µg/mL
O=C(O)CSc1ncnc2sc3c(c12)CCCC3 | > 42.1 µg/mL
C[N+](C)(C)CCCCCC[N+](C)(C)C.[Br-] | > 54.3 µg/mL
Nc1cccc(Oc2cnccn2)c1 | > 28.1 µg/mL
CC(=O)N(CCC(c1ccco1)C(C)C)Cc1ccc(Cl)cc1 (stereo unspecified) | 16.4 µg/mL (≈ 49.1 µM)
Cc1csc(NC(=O)c2c(-c3ccccc3)noc2C)n1 | 37.4 µg/mL (≈ 125 µM)
CCCC(=O)NC(c1ccc(Cl)cc1)c1ccc2cccnc2c1O (stereo unspecified) | 0.4 µg/mL (≈ 1.13 µM)
Cn1c(=S)oc2ccccc21 | 14.9 µg/mL (≈ 90.2 µM)
Nc1ncnc2c1ncn2C1OC(CO)C(O)C1O (stereo unspecified) | > 40.1 µg/mL
COc1ccc(C2CC(=O)C=C(NCc3ccccc3)C2)cc1 (stereo unspecified) | 14.2 µg/mL (≈ 46.2 µM)
O=C(COc1ncnc2sccc12)Nc1ccc(F)cc1F | > 48.2 µg/mL
Cc1ccc(C)c(C(C)NC(=O)Cc2cccs2)c1 (stereo unspecified) | > 41 µg/mL
COC1=C(Nc2ccccc2OC)C(=O)c2ccccc2C1=O | 17.2 µg/mL (≈ 55.6 µM)
O=C(CCNC(=O)c1ccccc1)NCC1CCCCC1 | > 43.3 µg/mL
CC(=O)c1sc(NC(=O)c2ccc3c(c2)OCO3)nc1C | 0.9 µg/mL (≈ 2.96 µM)
CC(=O)C1=C(C)OC(N)=C(C#N)C1c1cccc2ccccc12 (stereo unspecified) | 37.6 µg/mL (≈ 124 µM)
Cc1ccccc1N1C(=O)CC(c2c[nH]c3ccccc23)C1=O (stereo unspecified) | > 45.7 µg/mL
Nc1nc2ccccc2n1Cc1ccc(Cl)c(Cl)c1 | 33.1 µg/mL (≈ 113 µM)
COc1ccc(CC(=O)N2CCCC2)c(OC)c1 | 36.6 µg/mL (≈ 147 µM)
O=C(COC(=O)c1cc([N+](=O)[O-])ccc1Cl)NC1CCCC1 | > 49 µg/mL
CC(=O)c1ccc(S(=O)(=O)NCCC(=O)NC2CCN(Cc3ccccc3)CC2)cc1.O=C(O)C(=O)O | > 80 µg/mL

SMILES | solubility kinetic
O=C(c1ccccc1F)N1CCCc2ccccc21 | 33.4 µg/mL (≈ 131 µM)
C=CC#CC1(O)CC(C)N(C)CC1C (stereo unspecified) | > 29 µg/mL
Cc1csc(SCC(=O)Nc2nncs2)n1 | > 40.9 µg/mL
Clc1ccc(-c2nc(C3CCCCC3)no2)cc1 | < 0.3 µg/mL
O=C(c1ccccc1)C1NC1c1ccccc1 (stereo unspecified) | 26.9 µg/mL (≈ 120 µM)
O=C(CNC(=O)c1ccncc1)N/N=C/c1ccc(Br)cc1 | > 54.2 µg/mL
CN(C1(C)CCS(=O)(=O)C1)S(=O)(=O)c1cccc([N+](=O)[O-])c1 (stereo unspecified) | > 52.3 µg/mL
O=C(O)c1cccc(S(=O)(=O)Nc2ccc([N+](=O)[O-])cc2O)c1 | 45.3 µg/mL (≈ 134 µM)
CC(=O)c1c(C)[nH]c(C(=O)Nc2ccc(Cl)cc2)c1C | 2.2 µg/mL (≈ 7.57 µM)
CC(CN1CCOCC1)OC(=O)c1ccc(C(C)(C)C)cc1.Cl (stereo unspecified) | 18.2 µg/mL
Cc1ccc(OCC(=O)N2CCN(C(=O)c3ccncc3)CC2)cc1 | > 50.9 µg/mL
Cc1ccc(NC(=O)CCCC(=O)OC(C)C(=O)c2ccccc2)cc1 (stereo unspecified) | > 53 µg/mL
COc1ccc(OCC(=O)NS(=O)(=O)c2ccccc2)cc1 | > 48.2 µg/mL
CC(C)Cc1nnc(NC(=O)CCC(=O)N2CCCCC2)s1 | > 48.7 µg/mL
O=C1NC(c2cc(Cl)cc([N+](=O)[O-])c2O)Nc2ccccc21 (stereo unspecified) | > 48 µg/mL
CC(=O)NCCc1nc2cc(NC(=O)c3ccccc3)ccc2n1C | > 50.5 µg/mL
Cn1nc(C(=O)NNC(=O)c2cccc(Cl)c2)ccc1=O | > 46 µg/mL
O=C(N/C(=C\c1ccc(Cl)cc1)C(=O)N1CCOCC1)c1ccco1 | > 54.1 µg/mL
O=C(CN1C(=O)c2ccc([N+](=O)[O-])cc2C1=O)Nc1nccs1 | 26.2 µg/mL (≈ 78.8 µM)
CN(CCCC(=O)N1CCN(c2ncccn2)CC1)S(=O)(=O)c1ccc(F)cc1 | > 63.2 µg/mL
O=C(COc1ccccc1Cl)NCCCNC(=O)c1cccnc1 | > 52.2 µg/mL

SMILES | solubility kinetic
Cc1cc(C(=O)OCC(=O)NCc2ccccc2Cl)c(C)o1 | 2.2 µg/mL (≈ 6.84 µM)
Cc1ccc(NC(=O)C2CC2c2ccccc2)c([N+](=O)[O-])c1 (stereo unspecified) | 3.5 µg/mL (≈ 11.8 µM)
Cc1ccccc1NC(=S)NNC(=O)c1ccncc1 | > 43 µg/mL
COc1ccccc1CNC(=O)CSc1n[nH]c(N)n1 | > 44 µg/mL
CCCN(CCC)S(=O)(=O)c1ccc(C(=O)NCc2ccco2)cc1 | 12.7 µg/mL (≈ 34.8 µM)
Nc1nc(Nc2cccc(F)c2)nc(NCCO)c1[N+](=O)[O-] | 12.8 µg/mL (≈ 41.5 µM)
O=S(=O)(NCCC1CC1(Cl)Cl)c1ccccc1 (stereo unspecified) | 39.8 µg/mL (≈ 135 µM)
CCn1c(/C=C/c2ccccc2F)nc2ccccc2c1=O | 2.2 µg/mL (≈ 7.47 µM)
CCCCNC(=O)N(C)c1nc2ccccc2s1 | 28.8 µg/mL (≈ 109 µM)
COc1ccc2cc(C(=O)N3CCN(c4ccccc4OC)CC3)[nH]c2c1 | 2.9 µg/mL (≈ 7.94 µM)
N#C/C(=C\Nc1ccccn1)S(=O)(=O)c1ccc(Cl)cc1 | 0.4 µg/mL (≈ 1.25 µM)
CCCCN(C/C=C/c1ccccc1OC)Cc1ccccc1 | 3.5 µg/mL (≈ 11.3 µM)
CC(=O)c1c[nH]c(C(=O)NC2CCCCCC2)c1 | 34.9 µg/mL (≈ 141 µM)
O=C(COC(=O)c1cc(Cl)ccc1[N+](=O)[O-])NC1CC1 | > 44.8 µg/mL
O=C(Nc1cc([N+](=O)[O-])ccc1O)c1cccc([N+](=O)[O-])c1 | 37.1 µg/mL (≈ 122 µM)
COc1ccccc1NC(=O)CC(=O)Nc1ccccc1OC | > 47.2 µg/mL
CC(=O)N/C(=N/c1nc(C)cc(C)n1)Nc1ccc(C)cc1C | 3.4 µg/mL (≈ 10.9 µM)
COc1cc(CN=C(C)c2c(O)n(C3CCCCC3)c(=O)[nH]c2=O)cc(OC)c1 | < 0.3 µg/mL
CCc1nc2ccccc2c(C(=O)NCc2ccccc2)c1C | 33.9 µg/mL (≈ 111 µM)

Reference: PubChem BioAssay AID1996
